# Legend:
# Format in all cases: physicochemical
# [1] = Evaluation of solubility in methyl ethyl ketone (MEK); conditions: stirred at room temperature for 30 minutes
# Method: For each of Exemplary Compounds shown in Tables 1 and 2, a predetermined amount of the compound was added to a solvent of methyl ethyl ketone (MEK), and solubility was evaluated according to the following standard by stirring the mixture at room temperature for 30 minutes.
# • A: 1 g or more of the compound was stably dissolved in 300 g of MEK. • B: 1 g was not dissolved in 300 g of MEK. • X: decomposition was observed by measuring the absorption spectrum after the dissolution.
# [2] = Evaluation of heat stability of polystyrene resin film (hot plate 180° C., 5 minutes); conditions: polystyrene resin film on glass, hot plate 180° C. for 5 minutes, absorbance reduction rate at λmax
# Method: 30 mg of each of Exemplary Compounds and the comparative compounds described in the tables was dissolved in 8.9 g of methyl ethyl ketone and 1.1 g of a polystyrene resin (manufactured by Sigma-Aldrich Co. LLC) to prepare a resin composition.
# The obtained resin composition was spin-coated on a glass substrate to form a coating film, and the obtained coating film was dried at 60° C. for 2 minutes to produce a resin film. […]
# • A: absorbance reduction rate of Amax was less than 5%. • B: absorbance reduction rate of Amax was 5% or more and less than 10%. • C: absorbance reduction rate of Amax was 10% or more and less than 50%. • D: absorbance reduction rate of Amax was 50% or more. • X: solubility was insufficient, so that the film cannot be produced, which was not evaluable.
# [3] = Evaluation of absorption spectrum (maximal absorption wavelength in chloroform solution); conditions: for Near infrared absorbing property: grade of λmax in chloroform solution; for λmax (maximal absorption wavelength): chloroform solution, 3.0×10^−5 mol/L, 1 mm quartz cell
# Method: The specific compound is diluted with chloroform to a concentration of […], and an absorbance of the obtained sample solution is measured with a spectrophotometer (UV-3600 Plus, manufactured by Shimadzu Corporation) using a 1 mm quartz cell. A maximal absorption wavelength (Amax) is measured from an absorption spectrum of the sample solution.
# For each of Exemplary Compounds shown in Tables 1 and 2, a sample solution was prepared by diluting the compound with chloroform to a concentration of 3.0×10^−5 mol/L, and near infrared absorbability was evaluated.
# For each sample solution, an absorbance was measured in a 1 mm quartz cell using a spectrophotometer (UV-3600 Plus, manufactured by Shimadzu Corporation).
# A maximal absorption wavelength (Amax) was measured from the absorption spectrum of each sample solution. The results are shown in Tables 1 and 2, and the wavelength of Amax was evaluated according to the following standard.
# • A: Amax was 1,150 nm or more. • B: Amax was less than 1,150 nm.
SMILES,Solubility in solvent [1],Heat stability of resin composition [2],Near infrared absorbing property [3],λmax (maximal absorption wavelength) [3]
Cc1ccc(N(c2ccc(C)cc2)c2ccc([N+](=C3C=CC(=[N+](c4ccc(N(c5ccc(C)cc5)c5ccc(C)cc5)cc4)c4ccc(N(c5ccc(C)cc5)c5ccc(C)cc5)cc4)C=C3)c3ccc(N(c4ccc(C)cc4)c4ccc(C)cc4)cc3)cc2)cc1 [A-1],A (1 g or more of the compound was stably dissolved in 300 g of MEK),A (absorbance reduction rate of Amax was less than 5%),"A (Amax was 1,150 nm or more)",
Cc1ccc(N(c2ccc(C)cc2)c2ccc([N+](=C3C=CC(=[N+](c4ccc(N(c5ccc(C)cc5)c5ccc(C)cc5)cc4)c4ccc(N(c5ccc(C)cc5)c5ccc(C)cc5)cc4)C=C3)c3ccc(N(c4ccc(C)cc4)c4ccc(C)cc4)cc3)cc2)cc1.O=S(=O)([C-](S(=O)(=O)C(F)(F)F)S(=O)(=O)C(F)(F)F)C(F)(F)F.O=S(=O)([C-](S(=O)(=O)C(F)(F)F)S(=O)(=O)C(F)(F)F)C(F)(F)F [A-34],A (1 g or more of the compound was stably dissolved in 300 g of MEK),A (absorbance reduction rate of Amax was less than 5%),"A (Amax was 1,150 nm or more)",1211 nm
Cc1ccc(N(c2ccc(C)cc2)c2ccc([N+](=C3C=CC(=[N+](c4ccc(N(c5ccc(C)cc5)c5ccc(C)cc5)cc4)c4ccc(N(c5ccc(C)cc5)c5ccc(C)cc5)cc4)C=C3)c3ccc(N(c4ccc(C)cc4)c4ccc(C)cc4)cc3)cc2)cc1.c1ccc([B-](c2ccccc2)(c2ccccc2)c2ccccc2)cc1.c1ccc([B-](c2ccccc2)(c2ccccc2)c2ccccc2)cc1 [A-36],A (1 g or more of the compound was stably dissolved in 300 g of MEK),A (absorbance reduction rate of Amax was less than 5%),"A (Amax was 1,150 nm or more)",1215 nm
Cc1ccc(N(c2ccc(C)cc2)c2ccc([N+](=C3C=CC(=[N+](c4ccc(N(c5ccc(C)cc5)c5ccc(C)cc5)cc4)c4ccc(N(c5ccc(C)cc5)c5ccc(C)cc5)cc4)C=C3)c3ccc(N(c4ccc(C)cc4)c4ccc(C)cc4)cc3)cc2)cc1 [A-28],A (1 g or more of the compound was stably dissolved in 300 g of MEK),A (absorbance reduction rate of Amax was less than 5%),"A (Amax was 1,150 nm or more)",1209 nm
COc1ccc(N(c2ccc(OC)cc2)c2ccc([N+](=C3C=CC(=[N+](c4ccc(N(c5ccc(OC)cc5)c5ccc(OC)cc5)cc4)c4ccc(N(c5ccc(OC)cc5)c5ccc(OC)cc5)cc4)C=C3)c3ccc(N(c4ccc(OC)cc4)c4ccc(OC)cc4)cc3)cc2)cc1.[O-][Cl+3]([O-])([O-])[O-].[O-][Cl+3]([O-])([O-])[O-] [A-6],A (1 g or more of the compound was stably dissolved in 300 g of MEK),A (absorbance reduction rate of Amax was less than 5%),"A (Amax was 1,150 nm or more)",1248 nm
Cc1ccc(N(c2ccc(C)cc2)c2ccc([N+](=C3C=CC(=[N+](c4ccc(N(c5ccc(C)cc5)c5ccc(C)cc5)cc4)c4ccc(N(c5ccc(C)cc5)c5ccc(C)cc5)cc4)C=C3)c3ccc(N(c4ccc(C)cc4)c4ccc(C)cc4)cc3)cc2)cc1.F[P-](F)(F)(F)(F)F.F[P-](F)(F)(F)(F)F [A-30],A (1 g or more of the compound was stably dissolved in 300 g of MEK),A (absorbance reduction rate of Amax was less than 5%),"A (Amax was 1,150 nm or more)",1209 nm

# From US20260022246A1, “COLORING AGENT COMPOSITION, FILM, OPTICAL FILTER, AND NEAR INFRARED ABSORBING COMPOUND” (FUJIFILM Corporation, priority 2023, published 2026)
